Assay results as given in PubChem BioAssay AID330 (DTP/NCI, 2004).
Several values for one entry are separate records, joined by “and”; a condition that tells them apart may be missing. Identical values can stand only once. Toxic doses and inconclusive results are not listed. Square brackets hold non-standard residues; d marks the D form. Peptide text beside a SMILES is read from it. * marks the point of attachment. Nle = CCCC[CH](N)C(=O)O; Cbz = O=C(OCc1ccccc1)*

Test system: P388 leukemia ip, CD2F1 mice, survival T/C
Test: NCI In Vivo Anticancer Drug Screen. Data for tumor model P388 Leukemia (intraperitoneal) in CD2F1 (CDF1) mice
Conditions: endpoint: median survival time, higher = longer survival
Outline: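 Mice carrying the transplanted tumor received test compound or vehicle. Survival was recorded in each group, and the value is the treated-group measurement divided by that of the vehicle-treated control group.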

[1] = dose: 12.5 mg/kg/injection, schedule: Q01DX009 (ip), vehicle: Klucel (hydroxypropylcellulose) (HPC)
[2] = dose: 25.0 mg/kg/injection, schedule: Q01DX009 (ip), vehicle: Klucel (hydroxypropylcellulose) (HPC)
[3] = dose: 50.0 mg/kg/injection, schedule: Q01DX005 (ip), vehicle: Klucel (hydroxypropylcellulose) (HPC)
[4] = dose: 50.0 mg/kg/injection, schedule: Q01DX009 (ip), vehicle: Klucel (hydroxypropylcellulose) (HPC)
[5] = dose: 200.0 mg/kg/injection, schedule: Q01DX005 (ip), vehicle: Klucel (hydroxypropylcellulose) (HPC)
[6] = dose: 100.0 mg/kg/injection, schedule: Q01DX005 (ip), vehicle: Klucel (hydroxypropylcellulose) (HPC)
[7] = dose: 50.0 mg/kg/injection, schedule: Q01DX009 (ip), vehicle: saline with Tween-80
[8] = dose: 100.0 mg/kg/injection, schedule: Q01DX009 (ip), vehicle: saline with Tween-80
[9] = dose: 200.0 mg/kg/injection, schedule: Q01DX009 (ip), vehicle: saline with Tween-80
[10] = dose: 50.0 mg/kg/injection, schedule: Q01DX005 (ip), vehicle: saline with Tween-80
[11] = dose: 100.0 mg/kg/injection, schedule: Q01DX005 (ip), vehicle: saline with Tween-80
[12] = dose: 200.0 mg/kg/injection, schedule: Q01DX005 (ip), vehicle: saline with Tween-80
[13] = dose: 50.0 mg/kg/injection, schedule: Q04DX003 (ip), vehicle: saline with Tween-80
[14] = dose: 100.0 mg/kg/injection, schedule: Q04DX003 (ip), vehicle: saline with Tween-80
[15] = dose: 50.0 mg/kg/injection, schedule: Q01DX009 (ip), vehicle: saline
[16] = dose: 100.0 mg/kg/injection, schedule: Q01DX009 (ip), vehicle: saline
[17] = dose: 200.0 mg/kg/injection, schedule: Q01DX009 (ip), vehicle: saline

Cc1ccc(-n2c(COc3c(C)cccc3C)n[nH]c2=S)cc1 was tested, and the T/C [1] was 100 % of control, the T/C [2] was 100 % of control and the T/C [3] was 90 % of control. The T/C [4] was 109 % of control and the T/C [5] was 89 % of control.

C=C(C)c1c2c(SC)ccc(SC)c2cc2c(SC)ccc(SC)c12 was tested, and the T/C (dose: 100.0 mg/kg/injection, schedule: Q01DX001 (ip), vehicle: saline with Tween-80) was 96 % of control, the T/C (dose: 200.0 mg/kg/injection, schedule: Q01DX001 (ip), vehicle: saline with Tween-80) was 98 % of control and the T/C (dose: 400.0 mg/kg/injection, schedule: Q01DX001 (ip), vehicle: saline with Tween-80) was 95 % of control.

In the case of C[n+]1c(-c2cccc(OCCOCCOc3cccc(-c4c5cc(N)ccc5c5ccc(N)cc5[n+]4C)c3)c2)c2cc(N)ccc2c2ccc(N)cc21, the T/C (dose: 0.19 mg/kg/injection, schedule: Q01DX009 (ip), vehicle: water) was 114 % of control, the T/C (dose: 0.39 mg/kg/injection, schedule: Q01DX009 (ip), vehicle: water) was 114 % of control and the T/C (dose: 1.56 mg/kg/injection, schedule: Q01DX009 (ip), vehicle: water) was 170 % of control. The T/C (dose: 3.13 mg/kg/injection, schedule: Q01DX009 (ip), vehicle: water) was 172 % of control and the T/C (dose: 6.25 mg/kg/injection, schedule: Q01DX009 (ip), vehicle: water) was 102 % of control.

With O=C(O)C1C2OC(C(Cl)C2Cl)C1C(=O)O (configuration not stated) the T/C (dose: 15.0 mg/kg/injection, schedule: Q01DX005 (ip), vehicle: saline) was 97 % of control, the T/C (dose: 30.0 mg/kg/injection, schedule: Q01DX005 (ip), vehicle: saline) was 94 % of control and the T/C (dose: 60.0 mg/kg/injection, schedule: Q01DX005 (ip), vehicle: saline) was 95 % of control. For the same compound, the T/C (dose: 120.0 mg/kg/injection, schedule: Q01DX005 (ip), vehicle: saline) was 87 % of control.

With CCn1cnc(=O)[nH]c1=O the T/C [3] was 102 % of control, the T/C [6] was 96 % of control and the T/C [5] was 97 % of control.

For N#CN=CN(Cc1ccccc1)Cc1ccccc1, the T/C [7] was 101 % of control, the T/C [8] was 96 % of control and the T/C [9] was 93 % of control.

With O=C(Nc1ccc(N=Nc2ccc3cc(S(=O)(=O)O)cc(S(=O)(=O)O)c3c2)cc1)c1ccc(N=Nc2c(O)ccc3cc(S(=O)(=O)O)cc(S(=O)(=O)O)c23)cc1 the T/C (dose: 50.0 mg/kg/injection, schedule: Q01DX005 (ip), vehicle: saline) was 104 % of control, the T/C (dose: 100.0 mg/kg/injection, schedule: Q01DX005 (ip), vehicle: saline) was 99 % of control and the T/C (dose: 200.0 mg/kg/injection, schedule: Q01DX005 (ip), vehicle: saline) was 98 % of control.

With COc1cccc(C(=O)Nc2ccccc2-c2ccccc2)c1OC the T/C [10] was 97 % of control, the T/C [11] was 95 % of control and the T/C [12] was 87 % of control.

In the case of Brc1cccc[n+]1Cc1cc2ccccc2c2ccccc12, the T/C (dose: 25.0 mg/kg/injection, schedule: Q04DX002 (ip), vehicle: Klucel (hydroxypropylcellulose) (HPC)) was 105 % of control, the T/C (dose: 50.0 mg/kg/injection, schedule: Q04DX002 (ip), vehicle: Klucel (hydroxypropylcellulose) (HPC)) was 106 % of control and the T/C (dose: 100.0 mg/kg/injection, schedule: Q04DX002 (ip), vehicle: Klucel (hydroxypropylcellulose) (HPC)) was 112 % of control.

Cc1c(NS(=O)(=O)c2ccccc2)c(C)c(NS(=O)(=O)c2ccccc2)c(C)c1NS(=O)(=O)c1ccccc1 was tested, and the T/C [13] was 100 % of control, the T/C [14] was 90 % of control and the T/C (dose: 200.0 mg/kg/injection, schedule: Q04DX003 (ip), vehicle: saline with Tween-80) was 90 % of control.

CN(/N=C/c1ccc2c(c1)OCO2)C(=O)c1ccccc1N was tested, and the T/C [7] was 108 % of control, the T/C [8] was 114 % of control and the T/C [9] was 116 % of control.

C=CC(=O)NCNC(=O)C=C was tested, and the T/C [8] was 172 % of control, the T/C (dose: 132.0 mg/kg/injection, schedule: Q04DX003 (ip), vehicle: saline with Tween-80) was 118 % of control and the T/C (dose: 200.0 mg/kg/injection, schedule: Q04DX003 (ip), vehicle: saline sonified) was 159 % of control. The T/C (dose: 300.0 mg/kg/injection, schedule: Q04DX003 (ip), vehicle: saline with Tween-80) was 181 % of control.

In the case of CCN(CC)CCNc1c(OC)cc(C)c2sc3ccccc3c(=O)c12, the T/C [7] was 115 % of control and the T/C [8] was 117 % of control.

With S=c1nc[nH]c2ccc3[nH]ncc3c12 the T/C (dose: 6.25 mg/kg/injection, schedule: Q01DX005 (ip), vehicle: saline with Tween-80) was 93 % of control, the T/C (dose: 12.5 mg/kg/injection, schedule: Q01DX005 (ip), vehicle: saline with Tween-80) was 90 % of control and the T/C (dose: 25.0 mg/kg/injection, schedule: Q01DX005 (ip), vehicle: saline with Tween-80) was 92 % of control.

ON(C=S)c1ccccc1 was tested, and the T/C [10] was 102 % of control, the T/C [11] was 105 % of control and the T/C [12] was 97 % of control.

For CC(=O)OCC1OC(S[As](C)CCO)C(OC(C)=O)C(OC(C)=O)C1OC(C)=O (configuration not stated), the T/C [1] was 103 % of control and 109 % of control, the T/C [2] was 102 % of control and 113 % of control and the T/C [4] was 103 % of control and 117 % of control and 122 % of control. For the same compound, the T/C (dose: 100.0 mg/kg/injection, schedule: Q01DX009 (ip), vehicle: Klucel (hydroxypropylcellulose) (HPC)) was 111 % of control and 116 % of control and the T/C (dose: 200.0 mg/kg/injection, schedule: Q01DX009 (ip), vehicle: Klucel (hydroxypropylcellulose) (HPC)) was 108 % of control.

C=C(C)CC1(C)CC(=O)C(C)=C(C)C1=O (configuration not stated) was tested, and the T/C (dose: 25.0 mg/kg/injection, schedule: Q04DX003 (ip), vehicle: Klucel (hydroxypropylcellulose) (HPC)) was 110 % of control, the T/C (dose: 50.0 mg/kg/injection, schedule: Q04DX003 (ip), vehicle: Klucel (hydroxypropylcellulose) (HPC)) was 105 % of control and the T/C (dose: 100.0 mg/kg/injection, schedule: Q04DX003 (ip), vehicle: Klucel (hydroxypropylcellulose) (HPC)) was 100 % of control.

For COC(=O)C1c2ccccc2CC(=O)N1N (configuration not stated), the T/C (dose: 6.25 mg/kg/injection, schedule: Q01DX009 (ip), vehicle: Klucel (hydroxypropylcellulose) (HPC)) was 102 % of control, the T/C [1] was 100 % of control and the T/C [2] was 100 % of control.

For CCCCC(NC(=O)OCc1ccccc1)C(=O)NC(C(=O)O)C(C)C (configuration not stated) (Cbz-[Nle]-Val-OH; configuration not given here), the T/C [3] was 99 % of control, the T/C [6] was 111 % of control and the T/C [5] was 104 % of control.

For Cc1csc2c3ccccc3cc(=O)n12, the T/C (dose: 12.5 mg/kg/injection, schedule: Q01DX005 (ip), vehicle: Klucel (hydroxypropylcellulose) (HPC)) was 95 % of control, the T/C (dose: 25.0 mg/kg/injection, schedule: Q01DX005 (ip), vehicle: Klucel (hydroxypropylcellulose) (HPC)) was 99 % of control and the T/C [3] was 100 % of control. For the same compound, the T/C (dose: 100.0 mg/kg/injection, schedule: Q01DX001 (ip), vehicle: Klucel (hydroxypropylcellulose) (HPC)) was 98 % of control.

CC1=NCc2nn(C)nc2N1 was tested, and the T/C [15] was 100 % of control, the T/C [16] was 100 % of control and the T/C [17] was 97 % of control.

For c1ccc(C2SCCN2c2ccccc2)cc1 (configuration not stated), the T/C [15] was 91 % of control, the T/C [16] was 90 % of control and the T/C [17] was 89 % of control.

With O=C1CN=C(c2ccccn2)c2cc(Cl)ccc2N1CCO the T/C [8] was 100 % of control and the T/C [9] was 105 % of control.

With CC1(C)N=C(N)N=C(N)N1c1ccc(OCC(=O)Nc2ccccc2)c(Cl)c1 the T/C (dose: 25.0 mg/kg/injection, schedule: Q01DX009 (ip), vehicle: saline with Tween-80) was 100 % of control, the T/C (dose: 25.0 mg/kg/injection, schedule: Q04DX003 (ip), vehicle: saline with Tween-80) was 100 % of control and the T/C [7] was 104 % of control. The T/C [13] was 100 % of control, the T/C [8] was 109 % of control and the T/C [14] was 113 % of control.

N#CN was tested, and the T/C (dose: 12.5 mg/kg/injection, schedule: Q01DX009 (ip), vehicle: suspension in saline) was 103 % of control, the T/C (dose: 25.0 mg/kg/injection, schedule: Q01DX009 (ip), vehicle: suspension in saline) was 97 % of control and the T/C [15] was 91 % of control and 103 % of control. The T/C (dose: 50.0 mg/kg/injection, schedule: Q01DX009 (ip), vehicle: suspension in saline) was 107 % of control, the T/C [16] was 101 % of control and 106 % of control and the T/C [17] was 102 % of control.

O=C1OCCCOC(=O)c2cc(ccc2O)OCC#CC#CCOc2ccc(O)c1c2 was tested, and the T/C (dose: 60.0 mg/kg/injection, schedule: Q01DX005 (ip), vehicle: saline with Tween-80) was 92 % of control, the T/C (dose: 120.0 mg/kg/injection, schedule: Q01DX005 (ip), vehicle: saline with Tween-80) was 97 % of control and the T/C (dose: 240.0 mg/kg/injection, schedule: Q01DX005 (ip), vehicle: saline with Tween-80) was 97 % of control.

In the case of O=C(CN1C(=O)c2ccccc2C1=O)OCCNCCCl, the T/C [15] was 99 % of control, the T/C [16] was 106 % of control and the T/C [17] was 107 % of control.

In the case of COCCOCCOCCOCCO, the T/C [10] was 102 % of control, the T/C [11] was 100 % of control and the T/C [12] was 104 % of control.
